pIC50: −log10 of the molar value.
Each molecule was assayed against Escherichia coli DNA gyrase A/B tetramer (Escherichia coli, UniProt P0AES4+P0AES6) (assay: DNA gyrase supercoiling activity fluorescence polarisation assay).
Assay type: biochemical
Method: The supercoiling reactions may be quenched by the addition of 10 microliters/well of 40 nM oligodeoxynucleotide probe in 3× triplex-forming buffer consisting of 150 mM NaCl, and 150 mM sodium acetate at pH 3.5. The oligodeoxynucleotide probe may be 5′-BODIPY-FL-labeled […]. After 60 minutes, the fluorescence anisotropy of the BODIPY-FL may be measured in a Tecan Ultra plate reader, using 485 nm excitation and 535 nm emission filters equipped with polarizers. The IC50 may be determined by nonliner regression using two control reactions. The first contains no test compound but 0.8% DMSO (100% activity) while the second control reaction contains 5 uM Ciprofloxacin and 0.8% DMSO (0% activity).

Chain of Escherichia coli DNA gyrase A/B tetramer (P0AES4 whole entry, one chain of several): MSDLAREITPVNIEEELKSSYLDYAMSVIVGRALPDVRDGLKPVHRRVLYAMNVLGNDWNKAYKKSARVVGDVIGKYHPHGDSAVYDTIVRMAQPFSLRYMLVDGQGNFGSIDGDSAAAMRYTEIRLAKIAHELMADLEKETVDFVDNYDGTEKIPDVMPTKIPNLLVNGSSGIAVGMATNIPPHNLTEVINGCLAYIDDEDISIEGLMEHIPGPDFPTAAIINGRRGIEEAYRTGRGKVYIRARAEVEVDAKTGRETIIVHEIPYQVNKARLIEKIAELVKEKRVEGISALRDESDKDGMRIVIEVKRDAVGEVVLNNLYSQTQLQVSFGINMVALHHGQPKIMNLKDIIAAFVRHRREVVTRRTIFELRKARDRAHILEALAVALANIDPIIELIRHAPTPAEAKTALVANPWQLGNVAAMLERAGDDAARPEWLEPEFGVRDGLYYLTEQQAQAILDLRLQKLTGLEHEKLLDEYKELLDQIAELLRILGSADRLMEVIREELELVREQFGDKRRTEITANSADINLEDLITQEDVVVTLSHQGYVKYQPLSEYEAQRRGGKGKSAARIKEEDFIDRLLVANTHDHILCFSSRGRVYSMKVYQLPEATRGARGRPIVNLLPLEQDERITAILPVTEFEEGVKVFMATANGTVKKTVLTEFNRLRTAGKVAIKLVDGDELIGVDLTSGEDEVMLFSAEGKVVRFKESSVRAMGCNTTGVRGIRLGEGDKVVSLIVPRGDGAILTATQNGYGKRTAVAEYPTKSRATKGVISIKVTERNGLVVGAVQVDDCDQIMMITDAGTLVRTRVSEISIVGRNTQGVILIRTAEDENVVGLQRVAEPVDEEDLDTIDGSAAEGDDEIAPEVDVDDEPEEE

Row | SMILES | pIC50
1 | O=C1NC(=O)C2(Cc3c(F)cncc3N3CCCCC32)C(=O)N1 (stereo not drawn) [Example 5, 4-Fluoro-5,6a,7,8,9,10-Hexahydro-1′H-spiro[pyrido[1,2-a][1,7]naphthyridine-6,5′-pyrimidine]-2′,4′,6′(3′H)-trione] | < 4.00
2 | C[C@@H]1CN2c3ccc(-c4cscn4)nc3CC3(C(=O)NC(=O)NC3=O)[C@H]2[C@H](C)O1 (relative stereo) [Example 101, (2R,4S,4aS)-rel-2,4-Dimethyl-8-(1,3-thiazol-4-yl)-1,2,4,4a-tetrahydro-2′H,6H-spiro[1,4-oxazino[4,3-a][1,5]naphthyridine-5,5′-pyrimidine]-2′,4′,6′(1′H,3′H)-trione] | 5.70
3 | Cc1nnc(-c2cnc3c(c2)CC2(C(=O)NC(=O)NC2=O)[C@H]2[C@H](C)O[C@H](C)CN32)s1 (relative stereo) [Example 24, (6aS,7S,9R)-rel-7,9-Dimethyl-3-(5-methyl-1,3,4-thiadiazol-2-yl)-6a,7,9,10-tetrahydro-2′H,5H-spiro[1,4-oxazino[4,3-a][1,8]naphthyridine-6,5′-pyrimidine]-2′,4′,6′(1′H,3′H)-trione] | < 5.30
4 | Cc1cscc1-c1cnc2c(c1)CC1(C(=O)NC(=O)NC1=O)[C@H]1[C@H](C)O[C@H](C)CN21 (racemic) [Example 34, (6aS,7S,9R)-rel-7,9-Dimethyl-3-(4-methylthiophen-3-yl)-6a,7,9,10-tetrahydro-2′H,5H-spiro[1,4-oxazino[4,3-a][1,8]naphthyridine-6,5′-pyrimidine]-2′,4′,6′(1′H,3′H-trione] | 4.82
5 | C[C@@H]1CN2c3ccc(-c4cnccn4)nc3CC3(C(=O)NC(=O)NC3=O)[C@H]2[C@H](C)O1 (relative stereo) [Example 80, (2R,4S,4aS)-rel-2,4-Dimethyl-8-(pyrazin-2-yl)-1,2,4,4a-tetrahydro-2′H,6H-spiro[1,4-oxazino[4,3-a][1,5]naphthyridine-5,5′-pyrimidine]-2′,4′,6′(1′H,3′H)-trione] | < 5.30
6 | Cc1nc(-c2cnc3c(c2)CC2(C(=O)NC(=O)NC2=O)[C@H]2[C@H](C)O[C@H](C)CN32)no1 (relative stereo) [Example 122, (6aS,7S,9R)-rel-7,9-dimethyl-3-(5-methyl-1,2,4-oxadiazol-3-yl)-6a,7,9,10-tetrahydro-2′H,5H-spiro[1,4-oxazino[4,3-a][1,8]naphthyridine-6,5′-pyrimidine]-2′,4′,6′(1′H,3′H)-trione] | 5.00
7 | C[C@@H]1CN2c3cnc(-c4cn[nH]c4)cc3CC3(C(=O)NC(=O)NC3=O)[C@H]2[C@H](C)O1 (relative stereo) [Example 59, (6aS,7S,9R)-rel-7,9-Dimethyl-3-(1H-pyrazol-4-yl)-6a,7,9,10-tetrahydro-2′H,5H-spiro[1,4-oxazino[4,3-a][1,7]naphthyridine-6,5′-pyrimidine]-2′,4′,6′(1′H,3′H)-trione] | 4.30
8 | CC1C[C@@H](C)[C@H]2N(C1)c1ncc(Br)cc1CC21C(=O)NC(=O)NC1=O (stereo partly drawn) [Example 11, (6aR,7R)-3-Bromo-7,9-dimethyl-5,6a,7,8,9,10-hexahydro-1′H-spiro[pyrido[1,2-a][1,8]naphthyridine-6,5′-pyrimidine]-2′,4′,6′(3′H)-trione] | 4.52
9 | C[C@@H]1CN2c3ncc(-c4cncs4)cc3CC3(C(=O)NC(=O)NC3=O)[C@H]2[C@H](C)O1 (relative stereo) [Example 26, (6aS,7S,9R)-rel-7,9-Dimethyl-3-(1,3-thiazol-5-yl)-6a,7,9,10-tetrahydro-2′H,5H-spiro[1,4-oxazino[4,3-a][1,8]naphthyridine-6,5′-pyrimidine]-2′,4′,6′(1′H,3′H)-trione] | 5.40
10 | C[C@@H]1CN2c3cnc(-c4nccs4)cc3CC3(C(=O)NC(=O)NC3=O)[C@H]2[C@H](C)O1 (racemic) [Example 86, (6aS,7S,9R)-rel-7,9-Dimethyl-3-(1,3-thiazol-2-yl)-6a., 7,9,10-tetrahydro-2′H,5H-spiro[1,4-oxazino[4,3-a][1,7]naphthyridine-6,5′-pyrimidine]-2′,4′,6′(1′H,3′H)-trione] | 4.21
11 | COc1cncc(-c2ccc3c(n2)CC2(C(=O)NC(=O)NC2=O)[C@H]2[C@H](C)O[C@H](C)CN32)n1 (relative stereo) [Example 104, (2R,4S,4aS)-rel-8-(6-Methoxypyrazin-2-yl)-2,4-dimethyl-1,2,4,4a-tetrahydro-2′H,6H-spiro[1,4-oxazino[4,3-a][1,5]naphthyridine-5,5′-pyrimidine]-2′,4′,6′(1′H,3′H)-trione] | 4.66
12 | C[C@@H]1CN2c3cnc(-c4ccoc4)cc3CC3(C(=O)NC(=O)NC3=O)[C@H]2[C@H](C)O1 (relative stereo) [Example 63, (6aS,7S,9R)-rel-3-(furan-3-yl)-7,9-dimethyl-6a,7,9,10-tetrahydro-2′H,5H-spiro[1,4-oxazino[4,3-a][1,7]naphthyridine-6,5′-pyrimidine]-2′,4′,6′(1′H,3′H)-trione] | 4.46
13 | C[C@@H]1CN2c3ncc(C#N)cc3CC3(C(=O)NC(=O)NC3=O)[C@H]2[C@H](C)O1 (relative stereo) [Example 113, (6aS,7S,9R)-rel-7,9-Dimethyl-2′,4′,6′-trioxo-1′,3′,4′,6′,6a,7,9,10-octahydro-2′H,5H-spiro[1,4-oxazino[4,3-a][1,8]naphthyridine-6,5′-pyrimidine]-3-carbonitrile] | 4.66
14 | C[C@@H]1CN2c3cnc(-c4cncnc4)cc3CC3(C(=O)NC(=O)NC3=O)[C@H]2[C@H](C)O1 (relative stereo) [Example 60, (6aS,7S,9R)-rel-7,9-Dimethyl-3-(pyrimidin-5-yl)-6a,7,9,10-tetrahydro-2′H,5H-spiro[1,4-oxazino[4,3-a][1,7]naphthyridine-6,5′-pyrimidine]-2′,4′,6′(1′H,3′H)-trione] | 5.22
15 | Cc1noc(C)c1-c1cnc2c(c1)CC1(C(=O)NC(=O)NC1=O)[C@H]1[C@H](C)O[C@H](C)CN21 (relative stereo) [Example 49, (6aS,7S,9R)-rel-3-(3,5-Dimethylisoxazol-4-yl)-7,9-dimethyl-6a,7,9,10-tetrahydro-2′H,5H-spiro[1,4-oxazino[4,3-a][1,8]naphthyridine-6,5′-pyrimidine]-2′,4′,6′(1′H,3′H)-trione] | 4.52
16 | C[C@@H]1CN2c3ncc(-c4ccc(-c5nnn[nH]5)s4)cc3CC3(C(=O)NC(=O)NC3=O)[C@H]2[C@H](C)O1 (relative stereo) [Example 31, (6aS,7S,9R)-rel-7,9-Dimethyl-3-[5-(1H-tetrazol-5-yl)thiophen-2-yl]-6a,7,9,10-tetrahydro-2′H,5H-spiro[1,4-oxazino[4,3-a][1,8]naphthyridine-6,5′-pyrimidine]-2′,4′,6′(1′H,3′H)-trione] | 5.22
17 | C[C@@H]1CN2c3ccc(-c4cnn(C)c4)nc3CC3(C(=O)NC(=O)NC3=O)[C@H]2[C@H](C)O1 (relative stereo) [Example 79, (2R,4S,4aS)-rel-2,4-Dimethyl-8-(1-methyl-1H-pyrazol-4-yl)-1,2,4,4a-tetrahydro-2′H,6H-spiro[1,4-oxazino[4,3-a][1,5]naphthyridine-5,5′-pyrimidine]-2′,4′,6′(1′H,3′H)-trione] | 4.77
18 | Cc1nnc(-c2cc3c(nc2F)N2C[C@@H](C)O[C@@H](C)[C@@H]2C2(C3)C(=O)NC(=O)NC2=O)s1 (relative stereo) [Example 16, (6aS,7S,9R)-rel-2-Fluoro-7,9-dimethyl-3-(5-methyl-1,3,4-thiadiazol-2-yl)-6a,7,9,10-tetrahydro-1′H,5H-spiro[[1,4]oxazino[4,3-a][1,8]naphthyridine-6,5′-pyrimidine]-2′,4′,6′(3′H)-trione] | 5.15

From patent US20110178064A1, “SPIRO CONDENSED […] DERIVATIVES FOR USE AS ANTIBACTERIAL” (A[…]&D, priority 2007, published 2011)
